# Measurements: paper PMC5673977, “Transport Deficiency Is the Molecular Basis of Candida albicans Resistance to Antifungal Oligopeptides” (Frontiers in Microbiology, 2017)
# Like-named read-outs stand apart in the source and are kept apart here. Where a SMILES comes first, the peptide text is derived from it.
# How the values were obtained:
# Type in all cases: cell-based, Candida albicans
# [1] = tested on: C. albicans SC5314; assay: Initial peptide uptake rate; details: SC 5314; cells grown in YNB-SG; 50 mM potassium phosphate buffer (pH 5.0 or 6.5) + 1% glucose, 30°C, 100 μM peptide, residual peptide by TNBS A420, slope 0- to 10-min
# Protocol: (§1) Yeast cells grown exponentially in the YNB-SG medium were harvested by centrifugation (3000 ×g, 5 min), washed with 50 mM potassium phosphate buffer (pH 5.0 or 6.5), and suspended in the same buffer containing 1% glucose, to a final cell density corresponding to A660 ≅ 1.0. The cell suspension was incubated at 30°C. After 10 min, an oligopeptide solution was added, to give a final concentration of 100 μM. At that moment and at 5 min intervals thereafter, 2 mL samples of the cell suspension were withdrawn, immediately filtered through the Whatman GF/A filters and the filtrates were used to determine the residual peptide concentration. Then, the 1 mL portions of the filtrates were taken and combined with 1.25 mL aliquots of a solution containing 4% Na2B4O7 × 10 H2O and 0.8 mg mL^-1 of 2,4,6-trinitrobenzenesulfonate. The reaction was carried out at 37°C for 30 min. The A420 values were measured and the peptide concentration was read from the appropriate standard curve. Data were plotted as nanomoles of an oligopeptide, taken up by 1 mg (dry weight) of cells versus time. The initial uptake velocities were determined from the slopes of the linear part of the curves, in the 0- to 10-min region.
# [2] = tested on: C. albicans opt1Δ; assay: Initial peptide uptake rate; details: 50 mM potassium phosphate buffer (pH 5.0 or 6.5) + 1% glucose, 30°C, 100 μM peptide, TNBS A420, slope 0- to 10-min
# Protocol: as §1
# [3] = tested on: C. albicans opt1–opt5Δ ptr2Δ ptr22Δ; assay: Initial peptide uptake rate; details: 50 mM potassium phosphate buffer (pH 5.0 or 6.5) + 1% glucose, 30°C, 100 μM peptide, TNBS A420, slope 0- to 10-min
# Protocol: as §1
# [4] = tested on: C. albicans opt1–opt5Δ; assay: Initial peptide uptake rate; details: 50 mM potassium phosphate buffer (pH 5.0 or 6.5) + 1% glucose, 30°C, 100 μM peptide, TNBS A420, slope 0- to 10-min
# Protocol: as §1
# [5] = tested on: C. albicans opt2Δ opt3Δ; assay: Initial peptide uptake rate; details: 50 mM potassium phosphate buffer (pH 5.0 or 6.5) + 1% glucose, 30°C, 100 μM peptide, TNBS A420, slope 0- to 10-min
# Protocol: as §1
# [6] = tested on: C. albicans opt4Δ; assay: Initial peptide uptake rate; details: 50 mM potassium phosphate buffer (pH 5.0 or 6.5) + 1% glucose, 30°C, 100 μM peptide, TNBS A420, slope 0- to 10-min
# Protocol: as §1
# [7] = tested on: C. albicans opt5Δ; assay: Initial peptide uptake rate; details: 50 mM potassium phosphate buffer (pH 5.0 or 6.5) + 1% glucose, 30°C, 100 μM peptide, TNBS A420, slope 0- to 10-min
# Protocol: as §1
# [8] = tested on: C. albicans ptr2Δ ptr22Δ; assay: Initial peptide uptake rate; details: 50 mM potassium phosphate buffer (pH 5.0 or 6.5) + 1% glucose, 30°C, 100 μM peptide, TNBS A420, slope 0- to 10-min
# Protocol: as §1
# [9] = tested on: C. albicans SC5314; details: SC 5314
# Protocol: (§2) Strains were grown at 30°C in YPD medium (1% yeast extract, 2% peptone, and 2% glucose) and stored on YPD plates containing 2% agar. Susceptibility testing was performed in YPD and other three media: (a) RPMI-1640 w/o sodium bicarbonate, with L-glutamine + 2% glucose + 3.45% MOPS, pH adjusted to 7.0; (b) YNB-AS—Yeast Nitrogen Base w/o amino acids (contains ammonium sulfate 5 g L^-1) + 2% glucose; (c) YNB-SG—Yeast Nitrogen Base w/o amino acids and ammonium sulfate + 2% glucose + 0.2 g L^-1 sodium glutamate. In their solid version, used for the mutant generation and isolation, YNB-AS and YNB-SG contained 2% agar.
# (§3) The in vitro growth inhibitory activity of antifungals was quantified by determination of minimal inhibitory concentration (MIC) values by the serial twofold dilution method, using the 96-well microtiter plates in three media: buffered RPMI-1640, YNB-AS, and YNB-SG. Conditions of the RPMI-1640-based assay were the same as outlined in the CLSI recommendations ([Clinical Laboratory Standards Institute, 2008]), except for the end-point readout that was done by spectrophotometric determination of cell density at 531 nm. Turbidity in individual wells was measured with a microplate reader (Victor^3; Perkin Elmer). MIC was defined as the lowest drug concentration that gave at least an 80% decrease in turbidity, relative to that of the drug-free growth control.
# (§4) The 96-well microtiter plates were also used for determination of in vitro growth inhibitory activity in YPD and YNB-based media. Individual wells were inoculated with 5 × 10^3 cfu mL^-1 of C. albicans cells from the overnight culture in YPD medium. The inoculated plates were incubated 37°C for 24 h and then turbidity was measured with a microplate reader at 531 nm, as described above for the RPMI-1640-based assay.
# [10] = tested on: C. albicans opt1Δ; details: turbidity 531 nm, at least 80% decrease
# Protocol: as §2, §3, §4
# [11] = tested on: C. albicans opt1–opt5Δ ptr2Δ ptr22Δ; details: turbidity 531 nm, at least 80% decrease
# Protocol: as §2, §3, §4
# [12] = tested on: C. albicans opt1–opt5Δ; details: turbidity 531 nm, at least 80% decrease
# Protocol: as §2, §3, §4
# [13] = tested on: C. albicans opt2Δ opt3Δ; details: turbidity 531 nm, at least 80% decrease
# Protocol: as §2, §3, §4
# [14] = tested on: C. albicans opt4Δ; details: turbidity 531 nm, at least 80% decrease
# Protocol: as §2, §3, §4
# [15] = tested on: C. albicans opt5Δ; details: turbidity 531 nm, at least 80% decrease
# Protocol: as §2, §3, §4
# [16] = tested on: C. albicans ptr2Δ ptr22Δ; details: turbidity 531 nm, at least 80% decrease
# Protocol: as §2, §3, §4
# [17] = RPMI-1640 medium, MOPS pH 7.0, CLSI conditions
compound,measurement,setting,value
"N=C(N)NCCC[C@H](N)C(=O)N[C@@H](CCCCN)C(=O)N[C@@H](CCCCN)C(=O)N[C@@H](Cc1c[nH]c2ccccc12)C(=O)N[C@@H](Cc1ccccc1)C(=O)N[C@@H](Cc1c[nH]c2ccccc12)C(=O)O [Peptide P6, Arg-Lys-Lys-Trp-Phe-Trp, reference compound] (H-RKKWFW-OH)",Uptake rate ± SD,[1],2.22 ± 0.11 nmol min^-1 (mg dry weight)^-1
same,Uptake rate ± SD,[2],1.85 ± 0.15 nmol min^-1 (mg dry weight)^-1
same,Uptake rate ± SD,[3],0.12 ± 0.03 nmol min^-1 (mg dry weight)^-1
same,Uptake rate ± SD,[4],0.22 ± 0.07 nmol min^-1 (mg dry weight)^-1
same,Uptake rate ± SD,[5],0.40 ± 0.09 nmol min^-1 (mg dry weight)^-1
same,Uptake rate ± SD,[6],2.11 ± 0.16 nmol min^-1 (mg dry weight)^-1
same,Uptake rate ± SD,[7],1.99 ± 0.10 nmol min^-1 (mg dry weight)^-1
same,Uptake rate ± SD,[8],2.46 ± 0.19 nmol min^-1 (mg dry weight)^-1
"CC(C)[C@H](NC(=O)[C@H](Cc1c[nH]c2ccccc12)NC(=O)[C@H](Cc1ccccc1)NC(=O)[C@@H](NC(=O)[C@@H](NC(=O)[C@H](CCCCN)NC(=O)[C@@H](N)CCCCN)C(C)C)C(C)C)C(=O)N[C@@H](CCCCN)C(=O)N[C@@H](Cc1ccccc1)C(=O)N[C@@H](CCCCN)C(=O)O [Peptide P10, Lys-Lys-Val-Val-Phe-Trp-Val-Lys-Phe-Lys] (H-KKVVFWVKFK-OH)",MIC,"[9]; RPMI-1640 medium, MOPS pH 7.0, CLSI conditions, turbidity 531 nm, at least 80% decrease",64 µg/mL
same,MIC,[9]; YNB + L-Gln (0.3 g L^-1) pH 5.0,64 µg/mL
same,MIC,[9]; YNB + L-Gln (0.3 g L^-1) pH 7.0,64 µg/mL
same,MIC,[9]; YNB + amino acid mixture (composition as in RPMI-1640),64 µg/mL
same,MIC,"[9]; YNB-AS medium, 5 × 10^3 cfu mL^-1, 37°C, 24 h, turbidity 531 nm, at least 80% decrease",64 µg/mL
same,MIC,"[9]; YNB-SG medium, 5 × 10^3 cfu mL^-1, 37°C, 24 h, turbidity 531 nm, at least 80% decrease",64 µg/mL
same,MIC,[9]; growth medium YNB-SG (Table 6),64 µg/mL
same,MIC,[10]; [17],64 µg/mL
same,MIC,"[10]; YNB-AS medium, 37°C, 24 h",64 µg/mL
same,MIC,"[10]; YNB-SG medium, 37°C, 24 h",64 µg/mL
same,MIC,[11]; [17],64 µg/mL
same,MIC,"[11]; YNB-AS medium, 37°C, 24 h",64 µg/mL
same,MIC,"[11]; YNB-SG medium, 37°C, 24 h",64 µg/mL
same,MIC,[12]; [17],64 µg/mL
same,MIC,"[12]; YNB-AS medium, 37°C, 24 h",64 µg/mL
same,MIC,"[12]; YNB-SG medium, 37°C, 24 h",64 µg/mL
same,MIC,[13]; [17],64 µg/mL
same,MIC,"[13]; YNB-AS medium, 37°C, 24 h",64 µg/mL
same,MIC,"[13]; YNB-SG medium, 37°C, 24 h",64 µg/mL
same,MIC,[14]; [17],64 µg/mL
same,MIC,"[14]; YNB-AS medium, 37°C, 24 h",64 µg/mL
same,MIC,"[14]; YNB-SG medium, 37°C, 24 h",64 µg/mL
same,MIC,[15]; [17],64 µg/mL
same,MIC,"[15]; YNB-AS medium, 37°C, 24 h",64 µg/mL
same,MIC,"[15]; YNB-SG medium, 37°C, 24 h",64 µg/mL
same,MIC,[16]; [17],64 µg/mL
same,MIC,"[16]; YNB-AS medium, 37°C, 24 h",64 µg/mL
same,MIC,"[16]; YNB-SG medium, 37°C, 24 h",64 µg/mL
same,Uptake rate ± SD,[1],<0.1 nmol min^-1 (mg dry weight)^-1
same,Uptake rate ± SD,[2],<0.1 nmol min^-1 (mg dry weight)^-1
same,Uptake rate ± SD,[3],<0.1 nmol min^-1 (mg dry weight)^-1
same,Uptake rate ± SD,[4],<0.1 nmol min^-1 (mg dry weight)^-1
same,Uptake rate ± SD,[5],<0.1 nmol min^-1 (mg dry weight)^-1
same,Uptake rate ± SD,[6],<0.1 nmol min^-1 (mg dry weight)^-1
same,Uptake rate ± SD,[7],<0.1 nmol min^-1 (mg dry weight)^-1
same,Uptake rate ± SD,[8],<0.1 nmol min^-1 (mg dry weight)^-1
"CSCC[C@H](NC(=O)[C@@H](NC(=O)[C@@H]1CCCN1C(=O)[C@H](CC(C)C)NC(=O)[C@@H](N)CCCCN)C(C)C)C(=O)O [Peptide P5, Lys-Leu-Pro-Val-Met, reference compound] (H-KLPVM-OH)",Uptake rate ± SD,[1],2.66 ± 0.19 nmol min^-1 (mg dry weight)^-1
same,Uptake rate ± SD,[2],2.01 ± 0.16 nmol min^-1 (mg dry weight)^-1
same,Uptake rate ± SD,[3],0.15 ± 0.04 nmol min^-1 (mg dry weight)^-1
same,Uptake rate ± SD,[4],0.39 ± 0.07 nmol min^-1 (mg dry weight)^-1
same,Uptake rate ± SD,[5],0.52 ± 0.08 nmol min^-1 (mg dry weight)^-1
same,Uptake rate ± SD,[6],1.95 ± 0.13 nmol min^-1 (mg dry weight)^-1
same,Uptake rate ± SD,[7],1.82 ± 0.11 nmol min^-1 (mg dry weight)^-1
same,Uptake rate ± SD,[8],2.56 ± 0.18 nmol min^-1 (mg dry weight)^-1
